{"source": "patent US7994185B2", "about": "“Benzene sulfonamide thiazole and oxazole compounds” (Glaxo Smith Kline LLC, priority 2008, dated 2011)", "key": {"[1]": {"system": "Human colon tumor cells (Colo205)", "test": "Cell growth inhibition assay (CellTiter-Glo), Colo205", "format": "cell-based", "conditions": "COLO 205, Table 2b, later runs, average for the one or more runs, categorized, read-out: IC50 for Colo205", "outline": "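Read-out was CellTiter-Glo luminescence (total ATP as a cell-number surrogate), expressed as % inhibition against DMSO vehicle wells. Before that, cells grown in RPMI/10% FBS were treated for 3 days at 37 °C with ten 1:3-spaced compound concentrations, final DMSO 0.2%.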"}, "[2]": {"system": "Human melanoma cancer cells (SK-MEL-28)", "test": "Cell growth inhibition assay (CellTiter-Glo), SK-MEL-28", "format": "cell-based", "conditions": "SK-MEL-28, Table 3b, later runs, average for the one or more runs, categorized, read-out: IC50 for SK-MEL-28"}, "MALME-3M": {"system": "MALME-3M", "test": "3 day proliferation assay, B-Raf V600E mutant cancer cell line", "format": "cell-based", "conditions": "Homo sapiens, Skin, BRAF V600E, read-out: Mean gIC50"}, "UACC-62": {"system": "UACC-62", "test": "3 day proliferation assay, B-Raf V600E mutant cancer cell line", "format": "cell-based", "conditions": "Homo sapiens; UACC-62, Skin, BRAF V600E; read-out: Mean gIC50"}, "C32TG": {"system": "C32TG", "test": "3 day proliferation assay, B-Raf V600E mutant cancer cell line", "format": "cell-based", "conditions": "Skin, BRAF V600E, read-out: Mean gIC50"}, "SK-MEL-1": {"system": "SK-MEL-1", "test": "3 day proliferation assay, B-Raf V600E mutant cancer cell line", "format": "cell-based", "conditions": "Homo sapiens; SK-MEL-1, Skin, BRAF V600E; read-out: Mean gIC50"}, "UCLA-SO-M14": {"system": "UCLA-SO-M14", "test": "3 day proliferation assay, B-Raf V600E mutant cancer cell line", "format": "cell-based", "conditions": "UCLA-SO-M14, Skin, BRAF V600E; read-out: Mean gIC50"}, "SK-MEL-28": {"system": "SK-MEL-28", "test": "3 day proliferation assay, B-Raf V600E mutant cancer cell line", "format": "cell-based", "conditions": "Homo sapiens; SK-MEL-28, Skin, BRAF V600E; read-out: Mean gIC50"}, "DU4475": {"system": "DU4475", "test": "3 day proliferation assay, B-Raf V600E mutant cancer cell line", "format": "cell-based", "conditions": "Homo sapiens, DU-4475; DU4475, Breast, BRAF V600E; read-out: Mean gIC50"}, "WM115": {"system": "WM115", "test": "3 day proliferation assay, B-Raf V600E mutant cancer cell line", "format": "cell-based", "conditions": "Homo sapiens, WM-115, WM115, Skin, BRAF V600D, read-out: Mean gIC50"}, "UACC-257": {"system": "UACC-257", "test": "3 day proliferation assay, B-Raf V600E mutant cancer cell line", "format": "cell-based", "conditions": "Homo sapiens; UACC-257, Skin, BRAF V600E; read-out: Mean gIC50"}, "COLO 205": {"system": "COLO 205", "test": "3 day proliferation assay, B-Raf V600E mutant cancer cell line", "format": "cell-based", "conditions": "Homo sapiens; COLO 205, Colon, BRAF V600E; read-out: Mean gIC50"}, "SK-MEL-3": {"system": "SK-MEL-3", "test": "3 day proliferation assay, B-Raf V600E mutant cancer cell line", "format": "cell-based", "conditions": "Homo sapiens, SK-MEL3; SK-MEL-3, Skin, BRAF V600E; read-out: Mean gIC50"}, "A375P F11s [3]": {"system": "A375P F11s", "test": "3 day proliferation assay, B-Raf V600E mutant cancer cell line", "format": "cell-based", "conditions": "Skin, BRAF V600E, read-out: Mean gIC50"}, "SH-4": {"system": "SH-4", "test": "3 day proliferation assay, B-Raf V600E mutant cancer cell line", "format": "cell-based", "conditions": "Homo sapiens; SH-4, Skin, BRAF V600E; read-out: Mean gIC50"}, "A101D": {"system": "A101D", "test": "3 day proliferation assay, B-Raf V600E mutant cancer cell line", "format": "cell-based", "conditions": "Homo sapiens, Skin, BRAF V600E, read-out: Mean gIC50"}, "ES-2": {"system": "ES-2", "test": "3 day proliferation assay, B-Raf V600E mutant cancer cell line", "format": "cell-based", "conditions": "Homo sapiens; ES-2, Ovary, BRAF V600E; read-out: Mean gIC50"}, "HT-29": {"system": "HT-29", "test": "3 day proliferation assay, B-Raf V600E mutant cancer cell line", "format": "cell-based", "conditions": "Homo sapiens, HT-29, Colon, BRAF T119S, read-out: Mean gIC50"}, "SW1417": {"system": "SW1417", "test": "3 day proliferation assay, B-Raf V600E mutant cancer cell line", "format": "cell-based", "conditions": "Homo sapiens; SW1417, Colon, BRAF V600E; read-out: Mean gIC50"}, "SW872": {"system": "SW872", "test": "3 day proliferation assay, B-Raf V600E mutant cancer cell line", "format": "cell-based", "conditions": "Homo sapiens; SW872, Connective tissue, BRAF V600E; read-out: Mean gIC50"}, "RKO": {"system": "RKO", "test": "3 day proliferation assay, B-Raf V600E mutant cancer cell line", "format": "cell-based", "conditions": "Homo sapiens, Colon, BRAF V600E, read-out: Mean gIC50"}, "A673": {"system": "A673", "test": "3 day proliferation assay, B-Raf V600E mutant cancer cell line", "format": "cell-based", "conditions": "Homo sapiens; A673, Muscle, BRAF V600E; read-out: Mean gIC50"}, "GCT": {"system": "GCT", "test": "3 day proliferation assay, B-Raf V600E mutant cancer cell line", "format": "cell-based", "conditions": "Homo sapiens, Skin, BRAF V600E, read-out: Mean gIC50"}, "NCI-H292": {"system": "NCI-H292", "test": "3 day proliferation assay, B-Raf V600E mutant cancer cell line", "format": "cell-based", "conditions": "Homo sapiens, NCI-H292, Lung, BRAF T119S, read-out: Mean gIC50"}, "[4]": {"system": "cancer cell lines encoding B-Raf V600E mutation", "test": "3 day proliferation assay, panel of 22 mutant cancer cell lines", "format": "cell-based", "conditions": "number of cell lines of the panel"}, "A375P F11s [5]": {"system": "A375P F11s", "test": "Dose dependent tumor inhibition, A375P F11s xenograft", "format": "in vivo, athymic mice", "design": "key: −: indicates no response; +: indicates growth delay (1-2x doubling); ++: indicates growth delay (>2x doubling); +++: indicates stable disease; ++++: indicates partial regression; +++++: indicates complete regression", "conditions": "oral, 14-day period", "method": "1. […] Tumor cells (2×10^6 A375P F11s) were implanted subcutaneously into the right flank of athymic mice on Day 1. To facilitate their growth, A375P F11s cells were suspended in Matrigel diluted 1:1 in phosphate-buffered saline before implantation. When tumors had reached approximately 200 mm^3 in volume (Day 19-22), tumor-bearing mice were randomized into study groups (n=7 or 8). Animals were dosed orally once or twice daily for a 14-day period. […] Tumor growth was measured twice a week using calipers for the duration of the study. Tumor volumes were calculated as a product of (length×width×width)/2 and median values were used to compare groups. Complete regressions (CR) were defined as three consecutive tumor measurements of ≦13.5 mm^3. Partial regressions were defined as three consecutive measurements of ≦50% of starting tumor volume. Tumor growth delay was defined as the difference in time taken for treated and control groups to reach 1000 mm^3 (T-C1000)."}}, "note": "pIC50: −log10 of the molar value.", "data": [{"compound": "CC(C)(C)c1nc(-c2cccc(NS(=O)(=O)c3c(F)cccc3F)c2F)c(-c2ccnc(N)n2)s1", "note": "[Example 58a, N-{3-[5-(2-Amino-4-pyrimidinyl)-2-(1,1-dimethylethyl)-1,3-thiazol-4-yl]-2-fluorophenyl}-2,6-difluorobenzenesulfonamide]", "values": [{"measurement": "pIC50", "setting": "[1]", "value": "> 7.00"}, {"measurement": "pIC50", "setting": "[2]", "value": "> 7.00"}, {"measurement": "pIC50", "setting": "MALME-3M", "value": "> 7.00"}, {"measurement": "pIC50", "setting": "UACC-62", "value": "> 7.00"}, {"measurement": "pIC50", "setting": "C32TG", "value": "> 7.00"}, {"measurement": "pIC50", "setting": "SK-MEL-1", "value": "> 7.00"}, {"measurement": "pIC50", "setting": "UCLA-SO-M14", "value": "> 7.00"}, {"measurement": "pIC50", "setting": "SK-MEL-28", "value": "> 7.00"}, {"measurement": "pIC50", "setting": "DU4475", "value": "> 7.00"}, {"measurement": "pIC50", "setting": "WM115", "value": "> 7.00"}, {"measurement": "pIC50", "setting": "UACC-257", "value": "> 7.00"}, {"measurement": "pIC50", "setting": "COLO 205", "value": "> 7.00"}, {"measurement": "pIC50", "setting": "SK-MEL-3", "value": "> 7.00"}, {"measurement": "pIC50", "setting": "A375P F11s [3]", "value": "> 7.00"}, {"measurement": "pIC50", "setting": "SH-4", "value": "> 7.00"}, {"measurement": "pIC50", "setting": "A101D", "value": "> 7.00"}, {"measurement": "pIC50", "setting": "ES-2", "value": "> 7.00"}, {"measurement": "pIC50", "setting": "HT-29", "value": "> 7.00"}, {"measurement": "pIC50", "setting": "SW1417", "value": "6.00 to 7.00"}, {"measurement": "pIC50", "setting": "SW872", "value": "6.00 to 7.00"}, {"measurement": "pIC50", "setting": "RKO", "value": "≤ 6.00"}, {"measurement": "pIC50", "setting": "A673", "value": "≤ 6.00"}, {"measurement": "pIC50", "setting": "GCT", "value": "≤ 6.00"}, {"measurement": "pIC50", "setting": "NCI-H292", "value": "≤ 6.00"}, {"measurement": "cancer cell lines encoding B-Raf V600E sensitive with gIC50<100 nM", "setting": "[4]", "value": "16 out of 22"}, {"measurement": "cancer cell lines not sensitive (gIC50>1000M)", "setting": "[4]", "value": "4 out of 22"}, {"measurement": "cancer cell lines with intermediate response (gIC50≧100 nM and <1000 nM)", "setting": "[4]", "value": "2 out of 22"}, {"measurement": "Response", "setting": "A375P F11s [5]; 0.1 mg/kg qd", "value": "−"}, {"measurement": "Response", "setting": "A375P F11s [5]; 1 mg/kg qd", "value": "+ (indicates growth delay (1-2x doubling))"}]}]}
